Measurements reported in patent US20250171459A1, “2-METHYL-4',5'-DIHYDROSPIRO[PIPERIDINE-4,7'-THIENO[2,3-C]PYRAN] DERIVATIVES AS INHIBITORS OF APOL1 AND METHODS OF USING SAME” (Vertex Pharmaceuticals Incorporated, priority 2022, published 2025).

Molecular target: T1, APOL1 (Homo sapiens, UniProt O14791)
T1 sequence (O14791 1-398 S342G/I384M): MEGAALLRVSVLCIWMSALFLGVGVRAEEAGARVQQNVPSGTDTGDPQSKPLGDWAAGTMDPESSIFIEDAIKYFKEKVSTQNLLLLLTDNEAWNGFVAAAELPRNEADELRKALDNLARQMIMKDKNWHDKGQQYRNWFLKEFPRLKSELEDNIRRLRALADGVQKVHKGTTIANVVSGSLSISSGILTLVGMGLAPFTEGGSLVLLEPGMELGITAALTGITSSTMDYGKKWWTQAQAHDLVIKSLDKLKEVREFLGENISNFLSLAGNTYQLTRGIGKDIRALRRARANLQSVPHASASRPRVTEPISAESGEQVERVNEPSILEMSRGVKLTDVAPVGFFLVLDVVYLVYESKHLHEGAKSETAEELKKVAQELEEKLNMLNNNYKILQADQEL
Assay: MultiTox-Fluor Multiplex Cytotoxicity Assay in tet-inducible APOL1 T-REx-HEK293 cells (cell rescue, ratio of dead to live cells)
Type: cell-based
Settings: tet-inducible transgenic APOL1 T-REx-HEK293 cell lines, 50 ng/mL tet, 24 hours; read-out: IP50 (i.e., IC50 for cell proliferation)
Description: The MultiTox-Fluor Multiplex Cytotoxicity Assay is a single-reagent-addition, homogeneous, fluorescence assay that measures the number of live and dead cells simultaneously in culture wells. The assay measures cell viability and cytotoxicity by detecting two distinct protease activities. […] The substrate enters intact cells, where it is cleaved to generate a fluorescent signal proportional to the number of living cells. […] A ratio of dead to live cells is used to normalize data.
The MultiTox reagent was added to each well and placed back in the incubator for an additional 30 minutes. The plate was read on the EnVision plate reader. A ratio of dead to live cells was used to normalize, and data was imported, analyzed, and fit using Genedata Screener (Basel, Switzerland) software. Data was normalized using percent of control, no tet (100% viability), and 50 ng/mL tet treated (0% viability), and fit using Smart Fit. The reagents, methods, and complete protocol for the MultiTox assay are described below.
Cells were washed with DPBS and then trypsinized to dissociate from the flask. Media was used to quench the trypsin, cells were then pelleted at 200 g and resuspended in fresh cell assay media (DMEM, 2% Tet-free FBS, 2 mM L-glutamine, 100 Units/mL penicillin-streptomycin). […] The plates were then incubated at room temperature for one hour.
Tetracycline is needed to induce APOL1 expression. 1 mg/mL tet stock in water was diluted to 250 ng/mL (5×) in cell assay media.
Compounds were dispensed at 200 nL in DMSO. The final top concentration was 10 μM with a 10 point 3-fold dilution in duplicate in the MultiTox assay.
20 μL was transferred from the 5× tet plate to the ARP and mixed, then 5 μL of 5× tet and the compounds were transferred to the cell plate and mixed using the Bravo. The cell plate was placed in the humidified 37° C. 5% CO2 incubator for 24 hours.
The MultiTox-Fluor Multiplex Cytotoxicity Assay was performed in accordance with the manufacturer's protocol. After cells were incubated with tet and compound for 24 hours, 25 μL of 1× MultiTox reagent was added to each well using the Multidrop dispenser; the plates were placed on a plate shaker (600 rpm) for 2 minutes, then centrifuged briefly and placed back in the 37° C. incubator for 30 minutes. The cell viability (excitation: 400 nm, emission: 486 nm) and cytotoxicity (excitation: 485 nm, emission: 535 nm) were read using the EnVision plate reader. A ratio of dead (cytotoxicity) to live (viability) cells was reported. Data was exported and analyzed in Genedata. Data was normalized using percent of control, no tet (100% viability), and 50 ng/mL tet treated (0% viability), and fit using Smart Fit settings in Genedata.

Structure (SMILES)	IC50 [nM]
C[C@H]1C[C@@]2(CCN1Cc1cnn(C)c1)OCC(O)c1cc(Cl)sc12 (mixture of isomers) [Compound 818]	< 100
C[C@H]1C[C@@]2(CCN1Cc1cnc(N[C@H]3CC[C@H](O)CC3)nc1)OCC(O)c1cc(Cl)sc12 (mixture of isomers) [Compound 825, (2′S, 7R)-2-chloro-1′-[[2-[(4-hydroxycyclohexyl)amino]pyrimidin-5-yl]methyl]-2′-methyl-spiro[4,5-dihydrothieno[2,3-c]pyran-7,4′-piperidine]-4-ol]	< 100
Cc1cn2nc(CN3CC[C@]4(C[C@@H]3C)OCC(O)c3cc(Cl)sc34)cc2c(NC2CC2)n1 (mixture of isomers) [Compound 826, 2-chloro-1′-[[4-(cyclopropylamino)-6-methyl-pyrazolo[1,5-a]pyrazin-2-yl]methyl]-2′-methyl-spiro[4,5-dihydrothieno[2,3-c]pyran-7,4′-piperidine]-4-ol]	< 100
CCc1cc2c(s1)CCO[C@@]21CCN(C2CC[C@@H](NC(=O)OC(C)(C)C)C2)[C@@H](C)C1 (single isomer, unassigned) [Compound 296]	100 to 500
Cc1cc2c(s1)CCO[C@@]21CCN(C2COCC2O)[C@@H](C)C1 (single isomer, unassigned) [Compound 499]	< 100
Cc1cc2c(s1)CCO[C@@]21CCN(C2COCC2O)[C@@H](C)C1 (single isomer, unassigned) [Compound 500]	< 100
CC1Cc2sc(Cl)cc2C2(CCN(Cc3cnn(C)c3)[C@@H](C)C2)O1 (single isomer, unassigned) [Compound 528, (2′S)-2-chloro-2′,6-dimethyl-1′-[(1-methylpyrazol-4-yl)methyl]spiro[6,7-dihydrothieno[3,2-c]pyran-4,4′-piperidine]]	100 to 500
CC1Cc2sc(Cl)cc2C2(CCN(Cc3cnn(C)c3)[C@@H](C)C2)O1 (single isomer, unassigned) [Compound 529, (2′S)-2-chloro-2′,6-dimethyl-1′-[(1-methylpyrazol-4-yl)methyl]spiro[6,7-dihydrothieno[3,2-c]pyran-4,4′-piperidine]]	< 100
C[C@H]1C[C@@]2(CCN1Cc1cnn(CCS(C)(=O)=O)c1)OCC(O)c1cc(Cl)sc12 (single isomer, unassigned) [Compound 768]	< 100
C[C@H]1C[C@@]2(CCN1Cc1cnn(CCS(C)(=O)=O)c1)OCC(O)c1cc(Cl)sc12 (single isomer, unassigned) [Compound 769]	< 100
C[C@H]1C[C@@]2(CCN1Cc1cnn(C)c1)OCC(O)c1cc(Cl)sc12 (single isomer, unassigned) [Compound 819]	< 100
C[C@H]1C[C@@]2(CCN1Cc1cnn(C)c1)OCC(O)c1cc(Cl)sc12 (single isomer, unassigned) [Compound 820]	< 100
COC1CO[C@@]2(CCN(Cc3cnn(CCS(C)(=O)=O)c3)[C@@H](C)C2)c2sc(Cl)cc21 (single isomer, unassigned) [Compound 842, (2′S, 7R)-2-chloro-4-methoxy-2′-methyl-1′-[[1-(2-methylsulfonylethyl)pyrazol-4-yl]methyl]spiro[4,5-dihydrothieno[2,3-c]pyran-7,4′-piperidine]]	< 100
COC1CO[C@@]2(CCN(Cc3cnn(CCS(C)(=O)=O)c3)[C@@H](C)C2)c2sc(Cl)cc21 (single isomer, unassigned) [Compound 843, (2′S, 7R)-2-chloro-4-methoxy-2′-methyl-1′-[[1-(2-methylsulfonylethyl)pyrazol-4-yl]methyl]spiro[4,5-dihydrothieno[2,3-c]pyran-7,4′-piperidine]]	< 100
Cc1c(Cl)sc2c1C(O)CO[C@@]21CCN(Cc2cnn(CCS(C)(=O)=O)c2)[C@@H](C)C1 (single isomer, unassigned) [Compound 859, (2′S, 7R)-2-chloro-2′,3-dimethyl-1′-[[1-(2-methylsulfonylethyl)pyrazol-4-yl]methyl]spiro[4,5-dihydrothieno[2,3-c]pyran-7,4′-piperidine]-4-ol]	< 100
